Assays:
[1] = target: T1, Angiotensin-converting enzyme (Oryctolagus cuniculus, UniProt P12822); type: tissue-based, Lung;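 further: enzymatic inhibition of angiotensin-converting enzyme measured with FAPGG as the substrate; in other assays of this panel Not Active means under 50% inhibition at 10 µM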
T1 sequence (P12822 whole entry): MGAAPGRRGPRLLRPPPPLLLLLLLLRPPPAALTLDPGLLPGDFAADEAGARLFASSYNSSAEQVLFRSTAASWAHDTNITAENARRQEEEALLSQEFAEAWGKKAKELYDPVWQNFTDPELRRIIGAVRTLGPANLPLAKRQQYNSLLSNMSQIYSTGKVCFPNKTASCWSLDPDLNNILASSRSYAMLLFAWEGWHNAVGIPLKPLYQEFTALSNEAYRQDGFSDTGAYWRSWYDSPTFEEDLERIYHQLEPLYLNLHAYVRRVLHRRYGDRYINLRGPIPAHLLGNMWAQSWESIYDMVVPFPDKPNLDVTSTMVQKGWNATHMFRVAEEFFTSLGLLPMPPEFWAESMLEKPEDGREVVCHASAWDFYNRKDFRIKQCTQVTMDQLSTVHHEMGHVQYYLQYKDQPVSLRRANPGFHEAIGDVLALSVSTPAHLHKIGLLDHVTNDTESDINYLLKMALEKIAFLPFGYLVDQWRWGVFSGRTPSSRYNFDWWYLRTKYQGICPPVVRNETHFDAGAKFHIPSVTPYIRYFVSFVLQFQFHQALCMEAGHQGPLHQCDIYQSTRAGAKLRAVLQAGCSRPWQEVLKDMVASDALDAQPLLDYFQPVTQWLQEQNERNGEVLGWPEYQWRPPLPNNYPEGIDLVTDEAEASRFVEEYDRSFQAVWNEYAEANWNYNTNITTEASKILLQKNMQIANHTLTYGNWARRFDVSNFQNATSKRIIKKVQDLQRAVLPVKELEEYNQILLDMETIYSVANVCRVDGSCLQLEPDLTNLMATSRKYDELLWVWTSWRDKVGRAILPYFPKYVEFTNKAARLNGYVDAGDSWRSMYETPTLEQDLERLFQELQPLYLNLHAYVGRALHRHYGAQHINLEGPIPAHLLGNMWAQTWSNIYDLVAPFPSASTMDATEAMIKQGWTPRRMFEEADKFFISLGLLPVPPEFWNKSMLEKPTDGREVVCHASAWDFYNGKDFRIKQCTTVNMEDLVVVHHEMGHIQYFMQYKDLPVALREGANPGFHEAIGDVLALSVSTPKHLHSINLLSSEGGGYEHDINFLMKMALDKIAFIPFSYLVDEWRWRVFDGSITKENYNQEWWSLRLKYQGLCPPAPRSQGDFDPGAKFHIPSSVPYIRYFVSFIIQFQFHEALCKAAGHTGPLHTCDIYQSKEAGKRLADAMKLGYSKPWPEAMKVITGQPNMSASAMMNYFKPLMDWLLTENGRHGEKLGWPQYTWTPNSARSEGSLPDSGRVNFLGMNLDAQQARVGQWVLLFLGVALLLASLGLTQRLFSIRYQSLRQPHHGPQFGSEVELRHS

[2] = target: T2, Alpha-1D adrenergic receptor (Homo sapiens, UniProt P25100); type: cell membranes, HEK293, Membrane; conditions: hek293; further: in other assays of this panel Not Active means under 50% inhibition at 10 µM
T2 sequence (P25100 whole entry): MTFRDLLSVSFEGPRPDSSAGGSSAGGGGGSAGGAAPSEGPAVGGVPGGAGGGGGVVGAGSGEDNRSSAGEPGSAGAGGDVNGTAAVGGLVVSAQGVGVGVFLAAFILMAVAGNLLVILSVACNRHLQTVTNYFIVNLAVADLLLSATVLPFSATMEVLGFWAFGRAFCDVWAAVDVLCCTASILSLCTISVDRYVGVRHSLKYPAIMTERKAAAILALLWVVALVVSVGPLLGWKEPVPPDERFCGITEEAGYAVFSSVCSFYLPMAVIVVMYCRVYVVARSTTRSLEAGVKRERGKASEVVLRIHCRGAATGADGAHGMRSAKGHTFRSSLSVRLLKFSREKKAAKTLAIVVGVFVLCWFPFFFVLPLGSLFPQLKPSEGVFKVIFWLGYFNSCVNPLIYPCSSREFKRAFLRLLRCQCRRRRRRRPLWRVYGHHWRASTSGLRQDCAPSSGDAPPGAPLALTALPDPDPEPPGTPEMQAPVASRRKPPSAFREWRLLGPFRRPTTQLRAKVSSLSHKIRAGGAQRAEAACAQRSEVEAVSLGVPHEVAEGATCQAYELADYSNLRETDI

[3] = DRUGMATRIX: Interleukin IL-1 radioligand binding (ligand: [125I] interleukin 1beta); type: cell membranes, Membrane; conditions: nih3t3; Not Active = under 50% inhibition at 10 µM
[4] = DRUGMATRIX: Glutamate, NMDA, Phencyclidine radioligand binding (ligand: [3H] TCP); type: cell membranes, Rattus norvegicus, Wistar, Cerebral cortex, Membrane; conditions: Not Active = under 50% inhibition at 10 µM
[5] = target: Protein phosphatase 3 catalytic subunit alpha (Homo sapiens, UniProt Q08209); set-up: species or system Escherichia coli;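 further: inhibition of calcineurin (PP2B) enzyme activity, measured with DiFMUP as the substrate; in other assays of this panel Not Active means under 50% inhibition at 10 µM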
[6] = DRUGMATRIX: Platelet-Derived Growth Factor (PDGF) radioligand binding (ligand: [125I] PDGF); type: cell-based; conditions: nih3t3; Not Active = under 50% inhibition at 10 µM
[7] = target: T3, Adenosine receptor A1 (Homo sapiens, UniProt P30542); type: cell membranes, CHO, Membrane; conditions: cho;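 further: radioligand binding assay at the adenosine A1 receptor, with DPCPX serving as the labelled ligand; in other assays of this panel Not Active means under 50% inhibition at 10 µM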
T3 sequence (P30542 whole entry): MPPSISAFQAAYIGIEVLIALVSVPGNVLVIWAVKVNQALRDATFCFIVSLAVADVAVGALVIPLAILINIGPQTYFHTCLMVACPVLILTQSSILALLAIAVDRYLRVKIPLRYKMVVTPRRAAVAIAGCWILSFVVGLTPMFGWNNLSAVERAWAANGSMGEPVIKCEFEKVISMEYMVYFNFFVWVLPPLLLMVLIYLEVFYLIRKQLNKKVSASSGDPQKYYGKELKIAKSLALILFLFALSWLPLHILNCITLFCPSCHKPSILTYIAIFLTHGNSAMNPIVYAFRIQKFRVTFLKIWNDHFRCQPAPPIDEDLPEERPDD

NC[C@H]1CC[C@H](C(=O)O)CC1 [TRANEXAMIC ACID]
Not Active: IC50 [1] | IC50 [2] | IC50 [3] | Ki [3] | IC50 [4] | Ki [4] | IC50 [5] | IC50 [6] | Ki [6] | IC50 [7]

CC1(C)O[C@@H]2C[C@H]3[C@@H]4CCC5=CC(=O)C=C[C@]5(C)[C@@]4(F)[C@@H](O)C[C@]3(C)[C@]2(C(=O)CO)O1 [TRIAMCINOLONE ACETONIDE]
Not Active: IC50 [1] | IC50 [2] | IC50 [3] | Ki [3] | IC50 [4] | Ki [4] | IC50 [5] | IC50 [6] | Ki [6] | IC50 [7]

NS(=O)(=O)c1cc2c(cc1Cl)NC(C(Cl)Cl)NS2(=O)=O (centres undefined) [TRICHLORMETHIAZIDE]
Not Active: IC50 [1] | IC50 [2] | IC50 [3] | Ki [3] | IC50 [4] | Ki [4] | IC50 [5] | IC50 [6] | Ki [6] | IC50 [7]

Cc1c(C)c2c(c(C)c1O)CCC(C)(COc1ccc(CC3SC(=O)NC3=O)cc1)O2 (centres undefined) [TROGLITAZONE]
Not Active: IC50 [1] | IC50 [2] | IC50 [3] | Ki [3] | IC50 [4] | Ki [4] | IC50 [5] | IC50 [6] | Ki [6] | IC50 [7]

N[C@@H]1[C@H]2CN(c3nc4c(cc3F)c(=O)c(C(=O)O)cn4-c3ccc(F)cc3F)C[C@@H]12 [TROVAFLOXACIN]
Not Active: IC50 [1] | IC50 [2] | IC50 [3] | Ki [3] | IC50 [4] | Ki [4] | IC50 [5] | IC50 [6] | Ki [6] | IC50 [7]

N#CC(C#N)=Cc1ccc(O)c(O)c1 [TYRPHOSTIN 23]
Not Active: IC50 [1] | IC50 [2] | IC50 [3] | Ki [3] | IC50 [4] | Ki [4] | IC50 [5] | IC50 [6] | Ki [6] | IC50 [7]

CC[C@]1(O)C[C@H]2CN(CCc3c([nH]c4ccccc34)[C@@](C(=O)OC)(c3cc4c(cc3OC)N(C=O)[C@H]3[C@@](O)(C(=O)OC)[C@H](OC(C)=O)[C@]5(CC)C=CCN6CC[C@]43[C@@H]65)C2)C1 [VINCRISTINE]
Not Active: IC50 [1] | IC50 [2] | IC50 [3] | Ki [3] | IC50 [4] | Ki [4] | IC50 [5] | IC50 [6] | Ki [6] | IC50 [7]

CCCOc1ccccc1-c1nc2nn[nH]c2c(=O)[nH]1 [ZAPRINAST]
Not Active: IC50 [1] | IC50 [2] | IC50 [3] | Ki [3] | IC50 [4] | Ki [4] | IC50 [5] | IC50 [6] | Ki [6] | IC50 [7]

SODIUM NITROPRUSSIDE
Not Active: IC50 [1] | Ki [1] | IC50 [2] | Ki [2] | IC50 [3] | Ki [3] | IC50 [4] | Ki [4] | IC50 [5] | Ki [5] | IC50 [6] | Ki [6] | IC50 [7] | Ki [7]

Reference: ChEMBL document CHEMBL1909046, “DrugMatrix in vitro pharmacology data”
